Data published in ChEMBL document CHEMBL1201862, “PubChem BioAssay data set” (2004).
Activity calls are given as the source filed them.

What was measured:
[1] = tested on: BJ; experiment: cytotoxicity toward BJ-TERT fibroblasts, dose response, cell-based, RAS-independent, luminescence (AID 1933); type: functional; settings: Homo sapiens
[2] = tested on: HEK293; experiment: inhibitors of LMP1-driven NF-kB reporter, dose response, cell-based, HEK293, luciferase, cherry-pick (AID 588343); type: functional; settings: Homo sapiens
[3] = target: Luciferin 4-monooxygenase (Photinus pyralis, UniProt P08659); experiment: firefly luciferase enzyme inhibitors, dose response, biochemical, luminescence (AID 1891)
[4] = cytotoxicity toward DRD oncogenic fibroblasts, dose response, cell-based, non-viral oncogenic, luminescence (AID 1934); type: functional; settings: Homo sapiens
[5] = tested on: BJ; experiment: cells; type: functional, cell-based; settings: Homo sapiens
[6] = tested on: BJ; experiment: cytotoxicity toward BJ-TERT-LT-ST fibroblasts, dose response, cell-based, RAS-independent, luminescence (AID 1935); type: functional; settings: Homo sapiens;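 further: BJ fibroblasts immortalized with TERT plus LT and ST oncogenes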
[7] = Luminescence Cell-Based Dose Confirmation HTS to Identify Inhibitors of Platelet Dense Granule Release. [Related pubchem assays: 1663 (Primary HTS), 1678 (Summary of Project)]; type: functional
[8] = target: Peroxisome proliferator-activated receptor gamma/Nuclear receptor coactivator 3 (Homo sapiens, UniProt P37231); experiment: TR-FRET dose response biochemical High Throughput Screening assay for agonists of the steroid receptor coactivator 3 (SRC-3) recruitment by the peroxisome proliferator-activated receptor gamma (PPAR gamma): non-selective agonists. [Related pubchem assays: 1301 (Confirmation screen.), 1048 (Primary screen.)]; type: functional
[9] = target: Peroxisome proliferator-activated receptor gamma/Nuclear receptor coactivator 2 (Homo sapiens, UniProt P37231); experiment: (§1) TR-FRET dose response biochemical High Throughput Screening assay for agonists of the steroid receptor coactivator 2 (SRC-2) recruitment by the peroxisome proliferator-activated receptor gamma (PPAR gamma): non-selective agonists. [Related pubchem assays: 1297, 1032 ]; type: functional
[10] = target: Peroxisome proliferator-activated receptor gamma/Nuclear receptor coactivator 1 (Homo sapiens, UniProt P37231); experiment: as §1, with “1 (SRC-1)” for “2 (SRC-2)”, “assays (depositor defined):AID1300, AID1808, AID504735, AID631]” for “assays: 1297, 1032 ]”; type: protein assay
[11] = target: T1, Epstein-Barr nuclear antigen 1 (Epstein-Barr virus (strain B95-8) (HHV-4) (Human herpesvirus 4), UniProt P03211); experiment: EBNA-1 inhibitors, dose response, biochemical, fluorescence polarization, 1536-well (AID 2381); design: species or system human gammaherpesvirus 4;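 further: fluorescence polarization of a Cy5 DNA probe bound by EBNA-1 protein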
T1 sequence (P03211 whole entry): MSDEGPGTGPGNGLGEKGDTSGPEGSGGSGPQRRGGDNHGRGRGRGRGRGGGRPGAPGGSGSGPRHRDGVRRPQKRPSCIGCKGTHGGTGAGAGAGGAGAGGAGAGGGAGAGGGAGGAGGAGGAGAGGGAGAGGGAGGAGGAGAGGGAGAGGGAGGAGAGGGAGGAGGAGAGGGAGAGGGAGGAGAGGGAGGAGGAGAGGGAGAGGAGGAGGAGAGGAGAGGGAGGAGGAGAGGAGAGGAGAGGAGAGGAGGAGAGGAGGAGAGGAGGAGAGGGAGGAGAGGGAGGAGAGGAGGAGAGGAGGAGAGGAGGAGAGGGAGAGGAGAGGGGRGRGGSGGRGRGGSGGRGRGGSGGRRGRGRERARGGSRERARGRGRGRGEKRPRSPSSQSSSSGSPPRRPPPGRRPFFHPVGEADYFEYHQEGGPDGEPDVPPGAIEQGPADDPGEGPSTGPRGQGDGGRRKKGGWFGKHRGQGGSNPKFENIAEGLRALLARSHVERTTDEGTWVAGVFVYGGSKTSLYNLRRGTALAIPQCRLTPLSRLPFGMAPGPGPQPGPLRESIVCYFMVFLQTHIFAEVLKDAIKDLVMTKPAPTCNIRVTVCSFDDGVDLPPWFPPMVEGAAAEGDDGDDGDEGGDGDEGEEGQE

[12] = target: T2, Lytic switch protein BZLF1 (Epstein-Barr virus (strain B95-8) (HHV-4) (Human herpesvirus 4), UniProt P03206); experiment: EBV ZTA inhibitors, dose response, counter-screen for EBNA-1 inhibitor project, biochemical, fluorescence polarization, Epstein-Barr virus, 1536-well (AID 2377); design: species or system human gammaherpesvirus 4;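 further: fluorescence polarization of Cy5-labelled ZRE DNA probe bound by purified Zta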
T2 sequence (P03206 whole entry): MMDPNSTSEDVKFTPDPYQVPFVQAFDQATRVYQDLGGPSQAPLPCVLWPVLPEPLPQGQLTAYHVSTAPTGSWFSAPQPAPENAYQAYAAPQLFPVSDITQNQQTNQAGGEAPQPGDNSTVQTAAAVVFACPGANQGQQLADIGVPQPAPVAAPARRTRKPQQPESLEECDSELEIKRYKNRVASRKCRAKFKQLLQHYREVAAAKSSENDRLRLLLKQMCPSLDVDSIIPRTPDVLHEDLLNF

[13] = target: DNA dC->dU-editing enzyme APOBEC-3A (Homo sapiens, UniProt P31941); experiment: Dose Response confirmation of small molecule APOBEC3A DNA Deaminase Inhibitors via a fluorescence-based single-stranded DNA deaminase assay. [Related pubchem assays (depositor defined):AID493011, AID493024]; type: functional
[14] = target: DNA dC->dU-editing enzyme APOBEC-3G (Homo sapiens, UniProt Q9HC16); type: functional;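 further: Dose-response counterscreen measuring inhibition of APOBEC3G DNA deaminase activity, run while confirming APOBEC3A inhibitors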
[15] = target: Cytochrome P450 2D6 (Homo sapiens, UniProt P10635);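 further: CYP2D6 member of a cytochrome P450 panel assay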
[16] = target: T3, Type-1 angiotensin II receptor (Homo sapiens, UniProt P30556); experiment: AT1 receptor antagonists, dose response, selectivity assay for APJ receptor antagonist project, cell-based, uHTS hits (AID 463214); type: functional;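 further: antagonist potency against angiotensin II stimulated AT1 response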
T3 sequence (P30556 whole entry): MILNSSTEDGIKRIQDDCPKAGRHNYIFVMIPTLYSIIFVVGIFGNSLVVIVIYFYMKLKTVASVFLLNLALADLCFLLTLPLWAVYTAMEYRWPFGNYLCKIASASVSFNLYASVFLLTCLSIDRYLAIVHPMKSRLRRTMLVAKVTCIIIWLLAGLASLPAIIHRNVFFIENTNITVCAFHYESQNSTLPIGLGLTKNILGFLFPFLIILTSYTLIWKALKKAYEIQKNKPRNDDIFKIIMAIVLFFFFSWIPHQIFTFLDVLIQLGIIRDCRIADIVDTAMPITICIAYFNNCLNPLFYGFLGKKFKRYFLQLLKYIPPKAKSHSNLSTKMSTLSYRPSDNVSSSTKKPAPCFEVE

[17] = target: Beta-galactosidase (Escherichia coli, UniProt Q8VNN2); experiment: PubChem AID 485352; type: functional
[18] = Luminescence Cell-Based Dose Retest to Confirm Inhibitors of Cancer Stem Cells. [Related pubchem assays (depositor defined):AID2717, AID2721]; type: functional; settings: Homo sapiens
[19] = target: T4, Heat shock factor protein 1 (Mus musculus, UniProt P38532); experiment: HSF1 potentiators in luciferase reporter cells, confirmation, cell-based, NIH3T3, luminescence, dose retest (AID 435004); type: functional;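 further: stress induced by proteasome inhibitor MG132 added 30 min after compound; luciferase reporter driven by HSF1 response element in NIH3T3 cells; actives raise luminescence as potentiators of the MG132 stress response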
T4 sequence (P38532 whole entry): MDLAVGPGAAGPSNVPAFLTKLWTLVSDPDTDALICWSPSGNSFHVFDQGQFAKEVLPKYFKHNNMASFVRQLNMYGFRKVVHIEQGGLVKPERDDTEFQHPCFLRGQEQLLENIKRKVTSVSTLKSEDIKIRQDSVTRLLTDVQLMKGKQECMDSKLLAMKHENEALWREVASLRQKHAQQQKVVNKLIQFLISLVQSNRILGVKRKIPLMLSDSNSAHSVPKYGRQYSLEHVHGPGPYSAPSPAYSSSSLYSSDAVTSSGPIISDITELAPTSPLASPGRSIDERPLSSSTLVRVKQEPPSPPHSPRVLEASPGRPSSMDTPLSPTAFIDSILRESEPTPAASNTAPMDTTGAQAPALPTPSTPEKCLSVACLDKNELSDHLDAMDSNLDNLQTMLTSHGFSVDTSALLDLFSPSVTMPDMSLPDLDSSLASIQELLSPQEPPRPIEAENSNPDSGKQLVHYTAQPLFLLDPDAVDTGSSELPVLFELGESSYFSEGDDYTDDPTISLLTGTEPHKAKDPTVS

[20] = target: Prothrombin (Homo sapiens, UniProt P00734); experiment: Thrombin 1536 HTS Dose Response Confirmation. [Related pubchem assays: 1046 (Thrombin 1536 HTS; hits were confirmed in this assay)]; type: functional
[21] = target: T5, CAAX prenyl protease 2 (Saccharomyces cerevisiae S288c, UniProt Q03530); type: biochemical
T5 sequence (Q03530 whole entry): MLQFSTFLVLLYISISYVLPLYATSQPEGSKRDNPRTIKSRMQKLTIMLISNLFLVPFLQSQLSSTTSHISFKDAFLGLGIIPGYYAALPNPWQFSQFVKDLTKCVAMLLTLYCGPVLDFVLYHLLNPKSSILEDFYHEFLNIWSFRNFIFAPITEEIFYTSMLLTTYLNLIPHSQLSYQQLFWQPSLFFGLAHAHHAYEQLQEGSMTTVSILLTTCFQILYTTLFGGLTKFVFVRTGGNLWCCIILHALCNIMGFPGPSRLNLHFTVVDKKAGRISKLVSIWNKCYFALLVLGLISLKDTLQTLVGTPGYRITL

[22] = microbe, parasite or virus in culture; type: functional; settings: Mycobacterium tuberculosis
[23] = inhibitors of intracellular T. cruzi replication, confirmation, NIH3T3 host cells, beta-gal luminescence (AID 2044); type: functional, cell-based;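 further: intracellular parasites grown in NIH/3T3 mouse fibroblasts as host cells; luminescent beta-galactosidase reporter signal from transgenic T. cruzi replicating inside host cells; inhibitors lower the luminescence signal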
[24] = cytotoxicity toward NIH3T3 fibroblasts, dose response, counter-screen, cell-based, ATP luminescence, mouse fibroblasts (AID 2010); type: functional;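 further: cells exposed to compound for about 90 hours before reading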
[25] = tested on: Vero; experiment: cells; type: functional; settings: Chlorocebus sabaeus
[26] = tested on: Vero; experiment: cells; type: functional, cell-based; settings: Chlorocebus sabaeus
[27] = cytotoxicity in HEK-293T cells, dose response, cytotoxicity control for TCR NF-kB inhibitor project, luminescence, T-cell screen hits (AID 489026); type: functional, cell-based;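 further: cells exposed to compound about 14 hours before the viability readout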
[28] = target: Paired box protein Pax-8 (Homo sapiens, UniProt Q06710); experiment: inhibitors of PAX8-driven TPO luciferase reporter, dose response, RMG-I cells, cherry-pick (AID 687027); type: functional, cell-based;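 further: luciferase reporter driven by Pax8 target thyroperoxidase promoter measured by SteadyGlo luminescence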

Chain of Peroxisome proliferator-activated receptor gamma/Nuclear receptor coactivator 2 (P37231 whole entry): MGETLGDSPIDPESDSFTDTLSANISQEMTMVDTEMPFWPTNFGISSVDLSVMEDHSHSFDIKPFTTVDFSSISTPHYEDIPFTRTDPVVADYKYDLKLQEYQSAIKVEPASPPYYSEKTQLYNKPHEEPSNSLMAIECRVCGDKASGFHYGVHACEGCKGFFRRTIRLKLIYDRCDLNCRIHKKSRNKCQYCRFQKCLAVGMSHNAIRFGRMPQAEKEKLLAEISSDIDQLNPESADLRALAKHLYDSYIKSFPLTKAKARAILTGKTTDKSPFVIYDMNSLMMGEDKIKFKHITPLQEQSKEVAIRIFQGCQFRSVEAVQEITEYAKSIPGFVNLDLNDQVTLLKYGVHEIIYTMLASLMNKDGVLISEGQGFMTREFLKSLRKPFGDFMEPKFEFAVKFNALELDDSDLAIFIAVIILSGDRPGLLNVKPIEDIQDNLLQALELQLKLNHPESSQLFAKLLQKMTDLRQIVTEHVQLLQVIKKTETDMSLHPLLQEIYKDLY
Chain of Peroxisome proliferator-activated receptor gamma/Nuclear receptor coactivator 2 (Q15596 whole entry, further chain): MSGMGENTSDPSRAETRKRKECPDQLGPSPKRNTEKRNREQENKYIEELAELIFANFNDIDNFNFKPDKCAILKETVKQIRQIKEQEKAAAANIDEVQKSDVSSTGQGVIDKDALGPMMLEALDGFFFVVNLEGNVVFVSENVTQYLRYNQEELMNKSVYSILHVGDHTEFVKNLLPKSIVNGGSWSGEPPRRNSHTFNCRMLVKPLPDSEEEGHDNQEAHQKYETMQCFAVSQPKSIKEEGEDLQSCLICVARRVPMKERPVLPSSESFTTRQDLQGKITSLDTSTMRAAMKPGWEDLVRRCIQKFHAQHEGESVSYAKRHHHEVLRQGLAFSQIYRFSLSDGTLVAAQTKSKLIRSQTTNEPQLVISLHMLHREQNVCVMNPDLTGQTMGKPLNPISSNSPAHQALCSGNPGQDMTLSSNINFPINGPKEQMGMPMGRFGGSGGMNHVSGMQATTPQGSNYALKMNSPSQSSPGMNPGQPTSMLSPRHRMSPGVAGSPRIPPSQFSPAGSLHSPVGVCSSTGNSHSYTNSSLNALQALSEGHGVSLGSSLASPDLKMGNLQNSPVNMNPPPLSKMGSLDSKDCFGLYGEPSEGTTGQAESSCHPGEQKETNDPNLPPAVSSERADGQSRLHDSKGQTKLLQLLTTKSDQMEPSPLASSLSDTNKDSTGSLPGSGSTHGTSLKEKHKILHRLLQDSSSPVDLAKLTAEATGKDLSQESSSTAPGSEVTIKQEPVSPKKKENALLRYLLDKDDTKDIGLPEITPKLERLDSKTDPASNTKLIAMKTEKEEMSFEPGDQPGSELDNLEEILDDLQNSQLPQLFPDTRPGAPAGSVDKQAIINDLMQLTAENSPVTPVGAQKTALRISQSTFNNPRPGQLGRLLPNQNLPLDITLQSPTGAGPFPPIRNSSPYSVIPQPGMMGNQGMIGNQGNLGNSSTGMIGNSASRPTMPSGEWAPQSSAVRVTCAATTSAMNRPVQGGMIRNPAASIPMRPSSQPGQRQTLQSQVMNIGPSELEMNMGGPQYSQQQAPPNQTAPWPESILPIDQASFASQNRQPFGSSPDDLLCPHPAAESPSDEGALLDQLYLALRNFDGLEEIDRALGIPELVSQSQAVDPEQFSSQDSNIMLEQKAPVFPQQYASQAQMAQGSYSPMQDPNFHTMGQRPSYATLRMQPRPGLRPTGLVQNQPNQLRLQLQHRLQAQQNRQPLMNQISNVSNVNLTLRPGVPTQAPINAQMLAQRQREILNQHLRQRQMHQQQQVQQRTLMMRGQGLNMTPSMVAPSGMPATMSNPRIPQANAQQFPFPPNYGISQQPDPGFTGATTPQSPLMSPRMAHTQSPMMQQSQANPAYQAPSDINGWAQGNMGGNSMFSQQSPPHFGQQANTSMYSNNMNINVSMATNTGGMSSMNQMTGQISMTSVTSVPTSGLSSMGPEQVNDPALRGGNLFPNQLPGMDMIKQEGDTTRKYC
Chain of Peroxisome proliferator-activated receptor gamma/Nuclear receptor coactivator 3 (P37231 whole entry): as the sequence (P37231 whole entry) above
Chain of Peroxisome proliferator-activated receptor gamma/Nuclear receptor coactivator 3 (Q9Y6Q9 whole entry, further chain): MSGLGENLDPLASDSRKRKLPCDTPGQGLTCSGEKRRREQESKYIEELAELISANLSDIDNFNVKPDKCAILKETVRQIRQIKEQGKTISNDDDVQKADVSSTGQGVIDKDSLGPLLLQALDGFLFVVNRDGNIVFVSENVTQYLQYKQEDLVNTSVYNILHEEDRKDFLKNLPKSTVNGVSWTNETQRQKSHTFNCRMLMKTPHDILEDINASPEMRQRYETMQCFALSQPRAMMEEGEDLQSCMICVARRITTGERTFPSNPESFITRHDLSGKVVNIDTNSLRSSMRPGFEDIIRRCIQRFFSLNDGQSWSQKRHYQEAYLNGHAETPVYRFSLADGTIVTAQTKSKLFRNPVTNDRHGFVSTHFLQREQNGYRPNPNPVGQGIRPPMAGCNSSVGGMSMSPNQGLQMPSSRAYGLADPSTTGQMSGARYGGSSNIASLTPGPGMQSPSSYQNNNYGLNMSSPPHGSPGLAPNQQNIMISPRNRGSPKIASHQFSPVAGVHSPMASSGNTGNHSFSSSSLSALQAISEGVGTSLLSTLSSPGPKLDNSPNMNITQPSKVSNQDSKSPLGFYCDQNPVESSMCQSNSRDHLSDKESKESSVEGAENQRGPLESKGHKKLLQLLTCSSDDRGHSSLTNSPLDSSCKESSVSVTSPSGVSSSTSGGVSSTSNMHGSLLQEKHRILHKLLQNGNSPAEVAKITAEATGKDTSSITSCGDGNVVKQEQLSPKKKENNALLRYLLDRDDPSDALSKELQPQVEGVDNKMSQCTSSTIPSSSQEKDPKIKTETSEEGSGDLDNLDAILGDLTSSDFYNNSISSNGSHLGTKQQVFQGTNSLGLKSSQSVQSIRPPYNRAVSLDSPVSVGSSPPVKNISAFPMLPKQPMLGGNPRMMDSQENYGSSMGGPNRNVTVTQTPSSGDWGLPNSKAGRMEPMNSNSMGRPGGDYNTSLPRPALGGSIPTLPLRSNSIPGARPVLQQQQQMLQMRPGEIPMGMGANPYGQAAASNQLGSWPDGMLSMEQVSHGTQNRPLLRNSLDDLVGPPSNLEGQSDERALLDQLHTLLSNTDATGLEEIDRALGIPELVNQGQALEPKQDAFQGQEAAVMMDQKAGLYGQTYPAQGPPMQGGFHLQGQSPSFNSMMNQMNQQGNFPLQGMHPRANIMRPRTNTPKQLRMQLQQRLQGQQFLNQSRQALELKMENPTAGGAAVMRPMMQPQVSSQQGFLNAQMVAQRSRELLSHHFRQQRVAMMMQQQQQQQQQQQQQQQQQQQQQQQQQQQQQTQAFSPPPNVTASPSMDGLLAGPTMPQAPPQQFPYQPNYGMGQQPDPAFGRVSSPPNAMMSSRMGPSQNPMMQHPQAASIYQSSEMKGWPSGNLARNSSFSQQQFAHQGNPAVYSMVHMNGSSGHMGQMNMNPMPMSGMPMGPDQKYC
Chain of Beta-galactosidase (Q8VNN2 whole entry): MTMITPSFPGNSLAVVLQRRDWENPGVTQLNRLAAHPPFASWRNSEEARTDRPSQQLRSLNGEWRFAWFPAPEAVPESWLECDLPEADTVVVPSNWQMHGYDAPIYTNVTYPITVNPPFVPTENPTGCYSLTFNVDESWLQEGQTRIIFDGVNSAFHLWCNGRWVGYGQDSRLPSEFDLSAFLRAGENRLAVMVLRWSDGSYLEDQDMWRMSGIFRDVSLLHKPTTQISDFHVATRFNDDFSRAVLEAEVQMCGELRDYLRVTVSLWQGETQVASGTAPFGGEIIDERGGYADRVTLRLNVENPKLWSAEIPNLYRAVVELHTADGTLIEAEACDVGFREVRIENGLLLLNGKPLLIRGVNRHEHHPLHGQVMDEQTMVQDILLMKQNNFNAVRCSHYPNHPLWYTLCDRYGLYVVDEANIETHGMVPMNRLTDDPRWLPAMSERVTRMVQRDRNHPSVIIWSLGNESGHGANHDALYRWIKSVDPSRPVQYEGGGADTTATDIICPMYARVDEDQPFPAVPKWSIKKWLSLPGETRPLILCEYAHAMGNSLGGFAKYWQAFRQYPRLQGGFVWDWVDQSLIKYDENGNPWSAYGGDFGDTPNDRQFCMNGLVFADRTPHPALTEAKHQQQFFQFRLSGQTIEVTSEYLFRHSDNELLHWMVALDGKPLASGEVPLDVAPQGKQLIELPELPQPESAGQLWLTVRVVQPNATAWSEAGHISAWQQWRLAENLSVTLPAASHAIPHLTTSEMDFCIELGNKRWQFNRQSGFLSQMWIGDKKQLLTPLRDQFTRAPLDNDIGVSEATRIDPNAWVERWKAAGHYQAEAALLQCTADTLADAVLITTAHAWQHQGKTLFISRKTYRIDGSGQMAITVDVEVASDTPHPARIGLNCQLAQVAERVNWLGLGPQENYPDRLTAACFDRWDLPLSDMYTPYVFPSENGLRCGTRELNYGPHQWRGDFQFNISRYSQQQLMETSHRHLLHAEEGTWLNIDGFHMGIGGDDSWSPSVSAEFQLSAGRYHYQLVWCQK

COc1cccc(/C=N/Nc2ncccc2[N+](=O)[O-])c1OC
EC50 [1]: 17.6 µM (active) | AC50 [2]: 1.8 µM (active) | EC50 [3]: 5.27 µM (active) | EC50 [4]: 13.5 µM (active) | EC50 [5]: 15.6 µM (inconclusive) | EC50 [6]: > 150 µM (not active) | EC50 [7]: 3.32 µM (active)

CCCCOC(=O)C(C)Nc1n[nH]c(=S)[nH]c1=O (configuration not stated)
EC50 [8]: > 79.4 µM (not active) | EC50 [9]: 16.3 µM (not active) | EC50 [10]: 17.3 µM (inactive)

O=C(Nc1nc(-c2ccc(S(=O)(=O)N3CCCCCC3)cc2)cs1)c1ccccc1
EC50 [8]: 40.9 µM (not active) | EC50 [9]: 15.8 µM (not active) | EC50 [10]: 13.3 µM (inactive)

CCOC(=O)c1oc2ccccc2c1NC(=O)c1ccc(S(=O)(=O)N(C)C)cc1
IC50 [11]: 16.6 µM (not active) | IC50 [12]: > 111 µM (not active)

CC(=O)/N=c1\sc2nc3ccccc3nc2n1N(C(C)=O)C(C)=O
EC50 [8]: > 79.4 µM (not active) | EC50 [9]: 22.9 µM (not active) | EC50 [10]: 25.2 µM (inactive)

CCCC(=O)Nc1ccc2nc(SCC(=O)Nc3ccc(N4CCOCC4)c(Cl)c3)sc2c1
IC50 [13]: 4.33 µM (active) | IC50 [11]: > 148 µM (not active) | IC50 [14]: 4.72 µM (active) | AC50 [15]: 10 µM (inconclusive) | IC50 [12]: > 111 µM (not active)

COc1cc(/C=C/c2ccc3cccc(OC)c3n2)c(OC(C)=O)c([N+](=O)[O-])c1
IC50 [16]: 10.2 µM (active) | EC50 [17]: 26.9 µM (active) | AC50 [18]: 7.38 µM (active)

Cc1onc(-c2ccccc2Cl)c1C(=O)Nc1nnc(-c2ccc(Br)cc2)s1
EC50 [8]: > 79.4 µM (not active) | EC50 [9]: 45 µM (not active) | EC50 [10]: > 79.4 µM (inactive)

COc1ccc2nc(SC)c(C#N)cc2c1
EC50 [8]: 41.8 µM (not active) | EC50 [19]: > 260 µM (inactive) | EC50 [9]: 12.3 µM (not active) | EC50 [10]: 14.1 µM (inactive)

O=C(Nc1ccc(N2CCOCC2)cc1)C1CCN(S(=O)(=O)c2ccccc2F)CC1
IC50 [20]: > 50 µM (not active)

COc1ccc(CN2CCN(C(c3ccc(F)cc3)c3ccc(F)cc3)CC2)c(OC)c1OC
AC50 [21]: 4.67 µM (active) | CC50 [22]: > 40 µM (active)

Cc1ccc(N2CC(C(=O)N/N=C/c3cccc([N+](=O)[O-])c3)CC2=O)cc1 (configuration not stated)
IC50 [20]: > 50 µM (not active)

CNC(=S)NNC(=O)c1sccc1OCc1cccc(C(F)(F)F)c1
IC50 [11]: 9.69 µM (active) | IC50 [12]: > 111 µM (not active)

Cc1ccc(-c2nc3ccccc3[nH]2)cc1NC(=O)c1sc2cc(Cl)ccc2c1Cl
EC50 [23]: 0.642 µM (active) | IC50 [11]: 13 µM (not active) | EC50 [24]: > 60 µM (inconclusive) | IC50 [12]: > 111 µM (not active)

CC(=O)c1c(C)[nH]c(C(=O)Nc2ccc(C)cn2)c1C
AC50 [2]: 1.7 µM (active)

CN(C)CCCNC(=O)/C=C/c1ccc(OCc2c(F)cccc2Cl)cc1
CC50 [25]: > 25 µM (active) | EC50 [23]: 0.327 µM (active) | EC50 [24]: 8.47 µM (active) | IC50 [26]: 23.5 µM (active)

COc1ccccc1Nc1ncc(C(=O)Nc2ccc(OC)c(OC)c2)c2ccccc12
IC50 [11]: 16.5 µM (not active) | IC50 [12]: > 111 µM (not active)

Cc1ccc(OCC(=O)N2CCC(N3CCCCCC3)CC2)cc1
IC50 [20]: > 50 µM (not active)

O[C@@H]1[C@@H](O)C=C2CCN3Cc4cc5c(cc4[C@H]1C23)OCO5 (some centres not stated)
CC50 [25]: 5.86 µM (active) | IC50 [27]: > 80 µM (inactive) | AC50 [28]: 1.88 µM (active) | IC50 [26]: > 25 µM (active)

O=C(CN1C(=O)c2ccccc2C1=O)NCC(=O)OCC(=O)c1cccc([N+](=O)[O-])c1
IC50 [16]: 17.4 µM (active) | EC50 [17]: > 40 µM (inactive)
